In one assay the target is ER (Homo sapiens (Human), UniProt P03372). As to the kind of experiment: In-cell western blot analysis of ER for "B" compounds. Format: cell-based. The following applies: 16 hours, read-out: ICW DC50. Put shortly:
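In-cell western: fixed cells stained with primary antibodies (2 h, RT), then anti-rabbit-680 and anti-mouse-800 secondaries (1:1000, 1 h, RT), imaged on a LI-COR plate reader. Relative ER level in treated wells expressed against untreated and DMSO-treated wells set as 100%.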

Assay [1] in a line: Cell growth assay (WST-8) for "B" compounds. Format: cell-based. The following applies: T47D, T47D cell line; read-out: Cell growth Inhibition in T47D cell line IC50. Put shortly:
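Cells seeded at 1500/well overnight, then exposed to compounds for 4 days. 10% WST-8 added for 2.5 h at 37 °C and absorbance read at 450 nm. Growth given as absorbance relative to vehicle control, from three repeats.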

Where only a bound is given, the exact number is not on record here.

Chain of ER (P03372 whole entry): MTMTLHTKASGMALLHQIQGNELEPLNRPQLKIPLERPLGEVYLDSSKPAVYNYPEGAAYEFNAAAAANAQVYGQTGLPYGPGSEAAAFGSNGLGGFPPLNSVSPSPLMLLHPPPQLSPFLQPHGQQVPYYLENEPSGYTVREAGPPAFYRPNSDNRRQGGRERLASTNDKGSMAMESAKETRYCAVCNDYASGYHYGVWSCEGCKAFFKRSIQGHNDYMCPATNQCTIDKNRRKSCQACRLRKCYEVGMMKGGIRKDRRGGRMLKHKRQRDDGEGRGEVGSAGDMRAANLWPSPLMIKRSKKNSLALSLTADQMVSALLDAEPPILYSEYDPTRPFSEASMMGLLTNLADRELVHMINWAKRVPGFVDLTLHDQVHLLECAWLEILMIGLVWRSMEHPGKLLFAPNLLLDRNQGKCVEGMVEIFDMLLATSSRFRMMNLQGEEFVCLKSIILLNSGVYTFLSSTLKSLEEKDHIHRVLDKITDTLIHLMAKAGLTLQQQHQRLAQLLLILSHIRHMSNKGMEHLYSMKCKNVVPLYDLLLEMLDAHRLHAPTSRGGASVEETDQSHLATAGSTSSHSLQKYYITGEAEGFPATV

Consider `O=C1CCC(N2C(=O)c3cc4c(cc3C2=O)CN(CC(=O)N2CC3(CC(Nc5ccc([C@@H]6c7ccc(O)cc7CC[C@@H]6c6ccccc6)cc5)C3)C2)C4)C(=O)N1` (stereo partly drawn) [Compound B163, 2-(2,6-dioxopiperidin-3-yl)-6-(2-(6-((4-((1R,2S)-6-hydroxy-2-phenyl-1,2,3,4-tetrahydronaphthalen-1-yl)phenyl)amino)-2-azaspiro[3.3]heptan-2-yl)-2-oxoethyl)-6,7-dihydropyrrolo[3,4-f]isoindole-1,3(2H,5H)-dione], for which, on ER, the DC50 was less than 10 nM. In addition, the IC50 in assay [1] was in the range of 1 to 10 nM.
Taken in the same sequence, the figures for `O=C1CCC(N2Cc3cc4c(cc3C2=O)OC[C@@H]2CN(C(=O)CN3C[C@@H]5CN(c6ccc([C@@H]7c8ccc(O)cc8CC[C@@H]7c7ccccc7)cc6)C[C@@H]5C3)CCN42)C(=O)N1` (stereo partly drawn) [Compound B157, 3-((S)-3-(2-((3aR,6aS)-5-(4-((1R,2S)-6-hydroxy-2-phenyl-1,2,3,4-tetrahydronaphthalen-1-yl)phenyl)hexahydropyrrolo[3,4-c]pyrrol-2(1H)-yl)acetyl)-8-oxo-1,2,3,4,4a,5,8,10-octahydro-9H-pyrazino[1′,2′:4,5][1,4]oxazino[2,3-f]isoindol-9-yl)piperidine-2,6-dione] were 10 to 100 nM and less than 1 nM.
`CCN(CC1CCN(c2ccc([C@@H]3c4ccc(O)cc4CC[C@@H]3c3ccccc3)cc2)CC1)[C@H]1C[C@H]2COc3cc4c(cc3N2C1)CN(C1CCC(=O)NC1=O)C4=O` (stereo partly drawn) [Compound B311, 3-((2S,3aS)-2-(ethyl((1-(4-((1R,2S)-6-hydroxy-2-phenyl-1,2,3,4-tetrahydronaphthalen-1-yl)phenyl)piperidin-4-yl)methyl)amino)-7-oxo-2,3,3a,4,7,9-hexahydro-1H,8H-pyrrolo[1′,2′:4,5][1,4]oxazino[2,3-f]isoindol-8-yl)piperidine-2,6-dione]: on ER, the DC50 is more than 100 nM. For the same compound, the IC50 in assay [1] is less than 1 nM.
Taken in the same sequence, the figures for `O=C1CCC(N2Cc3cc4c(cc3C2=O)OC[C@@H]2CN(CC3COC5(CCN(c6ccc([C@@H]7c8ccc(O)cc8CC[C@@H]7c7ccccc7)cc6)CC5)OC3)CCN42)C(=O)N1` (stereo partly drawn) [Compound B242, 3-((S)-3-((9-(4-((1R,2S)-6-hydroxy-2-phenyl-1,2,3,4-tetrahydronaphthalen-1-yl)phenyl)-1,5-dioxa-9-azaspiro[5.5]undecan-3-yl)methyl)-8-oxo-1,2,3,4,4a,5,8,10-octahydro-9H-pyrazino[1′,2′:4,5][1,4]oxazino[2,3-f]isoindol-9-yl)piperidine-2,6-dione] were less than 10 nM and less than 1 nM.
Turning to `O=C1CCC(N2Cc3cc4c(cc3C2=O)OC[C@@H]2CN(C(=O)CN3CCC5(CC3)CCN(c3ncc([C@@H]6c7ccc(O)cc7CC[C@@H]6c6ccccc6)cn3)CC5)CCN42)C(=O)N1` (stereo partly drawn) [Compound B159, 3-((S)-3-(2-(9-(5-((1S,2S)-6-hydroxy-2-phenyl-1,2,3,4-tetrahydronaphthalen-1-yl)pyrimidin-2-yl)-3,9-diazaspiro[5.5]undecan-3-yl)acetyl)-8-oxo-1,2,3,4,4a,5,8,10-octahydro-9H-pyrazino[1′,2′:4,5][1,4]oxazino[2,3-f]isoindol-9-yl)piperidine-2,6-dione], the DC50 on ER lay in the range of 10 to 100 nM. The IC50 in assay [1] is 1 to 10 nM.
Turning to `O=C1CCC(N2Cc3cc4c(cc3C2=O)OC[C@@H]2CN(CC(=O)N3CCC5(CC3)CCN(c3ccc([C@@H]6c7ccc(O)cc7CC[C@@H]6c6ccccc6)cc3)CC5)CCN42)C(=O)N1` (stereo partly drawn) [Compound B147, 3-((S)-3-(2-(9-(4-((1R,2S)-6-hydroxy-2-phenyl-1,2,3,4-tetrahydronaphthalen-1-yl)phenyl)-3,9-diazaspiro[5.5]undecan-3-yl)-2-oxoethyl)-8-oxo-1,2,3,4,4a,5,8,10-octahydro-9H-pyrazino[1′,2′:4,5][1,4]oxazino[2,3-f]isoindol-9-yl)piperidine-2,6-dione], the DC50 at ER lay within 10 to 100 nM. Moreover, the IC50 in assay [1] is 1 to 10 nM.
As for `O=C1CCC(N2Cc3cc4c(cc3C2=O)CC2(C4)CN(C[C@@H]3CCN(c4ccc([C@@H]5c6ccc(O)cc6CC[C@@H]5c5ccccc5)cc4)C3)C2)C(=O)N1` (stereo partly drawn) [Compound B217, 3-(1-(((S)-1-(4-((1R,2S)-6-hydroxy-2-phenyl-1,2,3,4-tetrahydronaphthalen-1-yl)phenyl)pyrrolidin-3-yl)methyl)-1′-oxo-5′,7′-dihydro-1'H-spiro[azetidine-3,6′-cyclopenta[f]isoindol]-2'(3'H)-yl)piperidine-2,6-dione], on ER, the DC50 was more than 100 nM. The IC50 in assay [1] lay in the range of 1 to 10 nM.
Taken in the same sequence, the figures for `O=C1CCC(N2Cc3cc4c(cc3C2=O)OC[C@@H]2CN(C(=O)[C@H]3CC[C@H](CN5CCN(c6ccc([C@@H]7c8ccc(O)cc8CC[C@@H]7c7ccccc7)cc6)CC5)CC3)CCN42)C(=O)N1` (stereo partly drawn) [Compound B141, 3-((S)-3-((1R,4S)-4-((4-(4-((1R,2S)-6-hydroxy-2-phenyl-1,2,3,4-tetrahydronaphthalen-1-yl)phenyl)piperazin-1-yl)methyl)cyclohexane-1-carbonyl)-8-oxo-1,2,3,4,4a,5,8,10-octahydro-9H-pyrazino[1′,2′:4,5][1,4]oxazino[2,3-f]isoindol-9-yl)piperidine-2,6-dione] were less than 10 nM and less than 1 nM.
Taken in the same sequence, the figures for `O=C1CCC(N2C(=O)c3cc4c(cc3C2=O)CN(CC2COC3(CCN(c5ccc([C@@H]6c7ccc(O)cc7CC[C@@H]6c6ccccc6)cc5)CC3)OC2)C4)C(=O)N1` (stereo partly drawn) [Compound B338, 2-(2,6-dioxopiperidin-3-yl)-6-((9-(4-((1R,2S)-6-hydroxy-2-phenyl-1,2,3,4-tetrahydronaphthalen-1-yl)phenyl)-1,5-dioxa-9-azaspiro[5.5]undecan-3-yl)methyl)-6,7-dihydropyrrolo[3,4-f]isoindole-1,3(2H,5H)-dione] were 10 to 100 nM and 1 to 10 nM.
Taken in the same sequence, the figures for `O=C1CCC(N2Cc3c(ccc4c3OC[C@H]3CN(C[C@H]5CCN(c6ccc([C@@H]7c8ccc(O)cc8CC[C@@H]7c7ccccc7)cc6)C5)CCN43)C2=O)C(=O)N1` (stereo partly drawn) [Compound B216, 3-((R)-7-(((R)-1-(4-((1R,2S)-6-hydroxy-2-phenyl-1,2,3,4-tetrahydronaphthalen-1-yl)phenyl)pyrrolidin-3-yl)methyl)-1-oxo-1,3,5,5a,6,7,8,9-octahydro-2H-pyrazino[1′,2′:4,5][1,4]oxazino[2,3-e]isoindol-2-yl)piperidine-2,6-dione] were 10 to 100 nM and more than 10 nM.
As for `O=C1CCC(N2Cc3cc4c(cc3C2=O)OC[C@@H]2CN(CC3COC5(CCN(c6ccc([C@@H]7c8ccc(O)cc8CC[C@@H]7c7ccccc7)cc6)CC5)O3)CCN42)C(=O)N1` (stereo partly drawn) [Compound B239, 3-((4aS)-3-((8-(4-((1R,2S)-6-hydroxy-2-phenyl-1,2,3,4-tetrahydronaphthalen-1-yl)phenyl)-1,4-dioxa-8-azaspiro[4.5]decan-2-yl)methyl)-8-oxo-1,2,3,4,4a,5,8,10-octahydro-9H-pyrazino[1′,2′:4,5][1,4]oxazino[2,3-f]isoindol-9-yl)piperidine-2,6-dione], on ER, the DC50 lay within 10 to 100 nM. In assay [1], the IC50 lay within 1 to 10 nM.
Taken in the same sequence, the figures for `COc1c2c(cc3c1CN(C1CCC(=O)NC1=O)C3=O)CN(C(=O)CN1CCC3(CC1)CCN(c1ccc([C@@H]4c5ccc(O)cc5CC[C@@H]4c4ccccc4)cc1)CC3)C2` (stereo partly drawn) [Compound B210, 3-(6-(2-(9-(4-((1R,2S)-6-hydroxy-2-phenyl-1,2,3,4-tetrahydronaphthalen-1-yl)phenyl)-3,9-diazaspiro[5.5]undecan-3-yl)acetyl)-4-methoxy-1-oxo-3,5,6,7-tetrahydropyrrolo[3,4-f]isoindol-2(1H)-yl)piperidine-2,6-dione] were less than 10 nM and less than 1 nM.
Take `O=C1CCC(N2Cc3cc4c(cc3C2=O)OC[C@@H]2CN(CC3CCC5(CCN(c6ccc([C@@H]7c8ccc(O)cc8CC[C@@H]7c7ccccc7)cc6)CC5)OC3)CCN42)C(=O)N1` (stereo partly drawn) [Compound B332, 3-((4aS)-3-((9-(4-((1R,2S)-6-hydroxy-2-phenyl-1,2,3,4-tetrahydronaphthalen-1-yl)phenyl)-1-oxa-9-azaspiro[5.5]undecan-3-yl)methyl)-8-oxo-1,2,3,4,4a,5,8,10-octahydro-9H-pyrazino[1′,2′:4,5][1,4]oxazino[2,3-f]isoindol-9-yl)piperidine-2,6-dione]: on ER, the DC50 was less than 10 nM. The IC50 in assay [1] was 1 to 10 nM.
Taken in the same sequence, the figures for `O=C1CCC(N2Cc3cc4c(cc3C2=O)OC[C@@H]2CN(CC3CC5(CCN(c6ccc([C@@H]7c8ccc(O)cc8CC[C@@H]7c7ccccc7)cc6)CC5)C3)CCN42)C(=O)N1` (stereo partly drawn) [Compound B211, 3-((S)-3-((7-(4-((1R,2S)-6-hydroxy-2-phenyl-1,2,3,4-tetrahydronaphthalen-1-yl)phenyl)-7-azaspiro[3.5]nonan-2-yl)methyl)-8-oxo-1,2,3,4,4a,5,8,10-octahydro-9H-pyrazino[1′,2′:4,5][1,4]oxazino[2,3-f]isoindol-9-yl)piperidine-2,6-dione] were less than 10 nM and 1 to 10 nM.
On to `O=C1CC[C@H](NC(=O)c2ccc3c(n2)OC[C@H]2CN(CC4COC5(CN(c6ccc([C@@H]7c8ccc(O)cc8CC[C@@H]7c7ccccc7)cc6)C5)OC4)CCN32)C(=O)N1` [Compound B347, (R)-N-((S)-2,6-dioxopiperidin-3-yl)-3-((2-(4-((1R,2S)-6-hydroxy-2-phenyl-1,2,3,4-tetrahydronaphthalen-1-yl)phenyl)-5,9-dioxa-2-azaspiro[3.5]nonan-7-yl)methyl)-1,2,3,4,4a,5-hexahydropyrazino[1,2-d]pyrido[2,3-b][1,4]oxazine-8-carboxamide], for which the DC50 on ER lay within 10 to 100 nM. In addition, the IC50 in assay [1] is less than 1 nM.

These data come from US20260028354A1, “TETRAHYDRONAPHTHALENE DERIVATIVES AS ESTROGEN RECEPTOR DEGRADERS” (REGENT OF THE UNIVERSITY OF MICHIGAN, priority 2022, published 2026).
